The nature of data set [1]: Sensory evaluation of sweetness linger by a panel of experts. It is filed as in vivo. Set-up: key: 0=no sweetness linger; 1=very slight sweetness linger; 2=slight sweetness linger; 3=moderate sweetness linger; 4=moderately high sweetness linger; 5=high sweetness linger. Conditions: for Sweetness linger rating: scale 0-5; for Sweetness Linger rating (defined scale anchors): rating defined for the protocol, REBA control sample 500 ppm. The procedure: As used herein, the phrases “sugar-like characteristic,” “sugar-like taste,” “sugar-like sweet,” “sugary,” and “sugar-like” are synonymous. […] These characteristics are dimensions in which the taste of sucrose is different from the tastes of natural and synthetic high-potency sweeteners. Whether or not a characteristic is more sugar-like is determined by expert sensory panel assessments of sugar and compositions comprising at least one natural and/or synthetic high-potency sweetener, both with and without a sweet taste improving composition. Such assessments quantify similarities of the characteristics of compositions comprising at least one natural and/or synthetic high-potency sweetener, both with and without a sweet taste improving composition, with those comprising sugar. Suitable procedures for determining whether a composition has a more sugar-like taste are well known in the art.
In a particular embodiment, a panel of assessors is used to measure the reduction of sweetness linger. Briefly described, a panel of assessors (generally 8 to 12 individuals) is trained to evaluate sweetness perception and measure sweetness at several time points from when the sample is initially taken into the mouth until 3 minutes after it has been expectorated. […] A decrease in score for a time point measured after the sample has cleared the mouth indicates there has been a reduction in sweetness perception.
The panel of assessors may be trained using procedures well known to those of ordinary skill in the art. In a particular embodiment, the panel of assessors may be trained using the Spectrum™ Descriptive Analysis Method (Meilgaard et al, Sensory Evaluation Techniques, 3rd edition, Chapter 11). Desirably, the focus of training should be the recognition of and the measure of the basic tastes; specifically, sweet. In order to ensure accuracy and reproducibility of results, each assessor should repeat the measure of the reduction of sweetness linger about three to about five times per sample, taking at least a five minute break between each repetition and/or sample and rinsing well with water to clear the mouth.
Generally, the method of measuring sweetness comprises taking a 10 mL sample into the mouth, holding the sample in the mouth for 5 seconds and gently swirling the sample in the mouth, rating the sweetness intensity perceived at 5 seconds, expectorating the sample (without swallowing following expectorating the sample), rinsing with one mouthful of water (e.g., vigorously moving water in mouth as if with mouth wash) and expectorating the rinse water, rating the sweetness intensity perceived immediately upon expectorating the rinse water, waiting 45 seconds and, while wating those 45 seconds, identifying the time of maximum perceived sweetness intensity and rating the sweetness intensity at that time (moving the mouth normally and swallowing as needed), rating the sweetness intensity after another […], rating the sweetness intensity after another 60 seconds (cumulative 120 seconds after rinse), and rating the sweetness intensity after still another 60 seconds (cumulative 180 seconds after rinse). Between samples take a 5 minute break, rinsing well with water to clear the mouth.
Sensory evaluation of the samples prepared in Example Set G was carried out under the following protocol, similar to that described hereinabove. In this test protocol, none of the samples were swallowed. All samples were expectorated and the mouth was rinsed with water after the tasting. Immediately upon sensing maximal sweetness, the sample was expectorated, the mouth was rinsed with water and the rate of sweetness decay (“Sweetness Linger”) was measured, where attention was focused on the sweetness 3-4 min after the water rinse. After sample tasting was complete, a salty oyster cracker was chewed followed by a water rinse, and at least 5 minutes followed before tasting the next sample. […]

The format of data set [2] is physicochemical. The procedure: A solution of rebaudioside A (>97% pure by HPLC ) was prepared in double distilled water (12.5 gm in 50 mL, 25% concentration) by stirring the mixture at 40° C. for 5 minutes. An amorphous form of rebaudioside A was formed by immediately using the clear solution for spray drying with the Lab-Plant spray drier SD-04 instrument (Lab-Plant Ltd., West Yorkshire, U.K.). The solution was fed through the feed pump into the nozzle atomizer which atomized it into a spray of droplets with the help of a constant flow of nitrogen/air. […] This dry powder (11-12 g, H2O 6.74%) was discharged continuously from the drying chamber and was collected in a bottle.

Where [3] appears, read: Example Set G, citric acid/potassium citrate composition equivalent to diet lemon-lime beverage, sweetness 3-4 min after water rinse.
The mark [4] stands for this setting: Example Set H, carbon-treated water, phosphoric acid (75%) to pH 2.4-2.5, protocol of Example Set G.

On to `OC[C@H]1O[C@@](CO)(O[C@H]2O[C@H](CO)[C@@H](O)[C@H](O)[C@H]2O)[C@@H](O)[C@@H]1O` [sugar, sucrose], for which the Sweetness linger rating in data set [1] (setting [3]) and in data set [1] (setting [4]) was 0 in each case. Moreover, the “Sweetness Linger rating (defined scale anchors)” value in data set [1] is on record as 0.

In the case of rebaudioside A, the Sweetness linger rating in data set [1] (setting [3]) and in data set [1] (setting [4]) was 5 in each case. The “Sweetness Linger rating (defined scale anchors)” value in data set [1] was 5.

With rebaudioside A [Form 4], in data set [2], the “Solubility in water at room temperature” value was greater than 35.0%.

The values above are taken from patent publication US20070116822A1, “HIGH-POTENCY SWEETENER COMPOSITION WITH SAPONIN AND COMPOSITIONS SWEETENED THEREWITH” (THE COCA-COLA COMPANY, priority 2005, published 2007).
